Assay results: patent US9725442B2, “Heterocyclic derivative having PGD2 receptor antagonist activity” (Shionogi & Co., Ltd., priority 2011, dated 2017)
Like-named read-outs stand apart in the source and are kept apart here.

Key:
Human DP1 receptor = Human DP1 receptor (Homo sapiens (Human), UniProt Q13258); test: Human DP1 inhibitory activity in DP1-expressing cell (PGD2-induced cAMP); format: cell-based
Method: Compounds were categorized as AA (cAMP is less than 100 nM) and A (cAMP is more than 100 nM and less than 5000 nM) as shown in Table 99 and 100.

CRTH2 = CRTH2 (Homo sapiens (Human), UniProt Q9Y5Y4); test: CRTH2 receptor binding inhibitory activity ([3H]-PGD2 displacement, membranes of CRTH2-expressing K562 cell); conditions: [3H]-PGD2 displacement, membrane of CRTH2-expressing K562 cell, read-out: Ki
Chain of CRTH2 (Q9Y5Y4 whole entry): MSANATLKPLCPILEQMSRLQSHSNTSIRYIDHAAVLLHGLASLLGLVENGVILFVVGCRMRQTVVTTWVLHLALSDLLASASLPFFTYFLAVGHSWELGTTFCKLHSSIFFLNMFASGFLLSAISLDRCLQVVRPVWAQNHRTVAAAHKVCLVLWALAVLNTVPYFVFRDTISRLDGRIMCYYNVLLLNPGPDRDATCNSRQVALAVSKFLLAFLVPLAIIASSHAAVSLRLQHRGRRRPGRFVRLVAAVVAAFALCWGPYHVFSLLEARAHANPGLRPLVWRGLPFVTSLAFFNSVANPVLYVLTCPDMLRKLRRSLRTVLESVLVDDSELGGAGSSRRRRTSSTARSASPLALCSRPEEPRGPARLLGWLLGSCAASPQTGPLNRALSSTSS
How it was run: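 Incubation ran 60 min at room temperature using 20 μg/well membrane from CRTH2-expressing K562 cells in pH 7.4 Tris/HCl (50 mM) with 10 mM MgCl2.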

[1] = category of cAMP IC50, human DP1 receptor expressing Jurkut cell
[2] = CRTH2 receptor binding, categorized AAAA/AAA

Chain of Human DP1 receptor (Q13258 whole entry): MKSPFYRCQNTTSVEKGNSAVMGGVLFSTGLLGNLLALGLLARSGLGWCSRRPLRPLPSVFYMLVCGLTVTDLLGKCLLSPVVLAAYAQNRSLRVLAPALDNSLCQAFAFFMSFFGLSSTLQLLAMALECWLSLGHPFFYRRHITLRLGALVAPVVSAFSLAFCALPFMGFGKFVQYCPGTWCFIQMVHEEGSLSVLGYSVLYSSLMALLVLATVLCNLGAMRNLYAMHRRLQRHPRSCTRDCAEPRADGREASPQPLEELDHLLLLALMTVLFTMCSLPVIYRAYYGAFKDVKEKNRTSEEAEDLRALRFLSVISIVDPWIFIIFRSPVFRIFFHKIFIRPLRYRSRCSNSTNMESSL

Row | Compound | IC50 (Human DP1 receptor; [1]) [nM] | Ki (CRTH2; [2]) [nM] | IC50 (Human DP1 receptor; IC50 of PGD2 (60 nM)-induced cAMP increase, human DP1 receptor expressing Jurkut cell) [nM] | Ki (CRTH2) [nM]
1 | CCOc1ccc(S(=O)(=O)N2C[C@H](n3nc(CC(=O)O)c4ccccc43)[C@H](C)[C@H]2C#N)cn1 [Compound I-293] | 100 to 5000 | 100 to 5000 | – | –
2 | CCOc1ccc(S(=O)(=O)N2C[C@@H](C)[C@@H](n3nc(Cc4noc(=O)[nH]4)c4ccccc43)C2)cc1 [Compound I-296] | 100 to 5000 | 100 to 5000 | – | –
3 | CCOc1ccc(S(=O)(=O)N2C[C@@H](C)[C@@H](n3nc(CC4=NNC(=O)C4)c4ccccc43)C2)cc1 [Compound I-297] | 100 to 5000 | 100 to 5000 | – | –
4 | CCOc1ccc(S(=O)(=O)N2C[C@H](n3nc(CC(=O)O)c4ccccc43)[C@@H](C)[C@@H]2C(N)=O)cc1 [Compound I-298] | 100 to 5000 | 100 to 5000 | – | –
5 | CC(C)Oc1ccc(S(=O)(=O)N2C[C@H](n3nc(CC(=O)O)c4ccc(F)cc43)C[C@@H]2Cn2ncnn2)cc1 [Compound I-299] | 100 to 5000 | 100 to 5000 | – | –
6 | CCS(=O)(=O)CCOc1ccc(S(=O)(=O)N2C[C@@H](C)[C@@H](n3nc(CC(=O)O)c4ccccc43)C2)cc1 [Compound I-305] | 100 to 5000 | 100 to 5000 | – | –
7 | CCSCCOc1ccc(S(=O)(=O)N2C[C@@H](C)[C@@H](n3nc(CC(=O)O)c4ccccc43)C2)cc1 [Compound I-308] | < 100 | < 100 | – | –
8 | CCOc1ccc(S(=O)(=O)N2C[C@@H](C)[C@@H](n3nc(CC(=O)NO)c4ccccc43)C2)cc1 [Compound I-311] | 100 to 5000 | 100 to 5000 | – | –
9 | CCOc1ccc(S(=O)(=O)N2C[C@@H](C)[C@@H](n3nc(CC(=O)O)c4ccccc43)C2)c(C(C)O)c1 (stereo partly shown) [Compound I-312] | < 100 | < 100 | – | –
10 | CCOc1ccc(S(=O)(=O)N2C[C@@H](C)[C@@H](n3nc(CC(=O)O)c4ccccc43)C2)c(CCO)c1 [Compound I-314] | 100 to 5000 | < 100 | – | –
11 | CCOc1ccc(S(=O)(=O)N2C[C@H](n3c(C)c(CC(=O)O)c4ccccc43)C[C@@H]2C)cc1 [Compound I-315] | < 100 | 100 to 5000 | – | –
12 | Cc1c(CC(=O)O)c2ccccc2n1[C@@H]1C[C@H](C)N(S(=O)(=O)c2ccc(F)cc2)C1 [Compound I-317] | 100 to 5000 | 100 to 5000 | – | –
13 | Cc1ccc(S(=O)(=O)N2C[C@H](n3c(C)c(CC(=O)O)c4ccccc43)C[C@@H]2C)cc1 [Compound I-318] | 100 to 5000 | 100 to 5000 | – | –
14 | CCOc1ccc(S(=O)(=O)N2C[C@H](n3nc(CC(=O)O)c4ccccc43)C[C@@H]2C(N)=O)cc1 [Compound I-319] | 100 to 5000 | 100 to 5000 | – | –
15 | CCOc1ccc(S(=O)(=O)N2C[C@H](n3nc(CC(=O)O)c4ccccc43)C[C@H]2C#N)cc1 [Compound I-320] | < 100 | < 100 | – | –
16 | C=CCOC[C@H]1C[C@@H](n2nc(CC(=O)O)c3ccc(F)cc32)CN1S(=O)(=O)c1ccc(OC(C)C)cc1 [Compound I-323] | 100 to 5000 | 100 to 5000 | – | –
17 | CCOc1ccc(S(=O)(=O)N2C[C@@H](C)[C@@H](n3nc(CC(=O)O)c4ccccc43)C2)c([N+](=O)[O-])c1 [Compound I-324] | < 100 | < 100 | – | –
18 | CC#CCOC[C@H]1C[C@@H](n2nc(CC(=O)O)c3ccc(F)cc32)CN1S(=O)(=O)c1ccc(OC(C)C)cc1 [Compound I-326] | 100 to 5000 | 100 to 5000 | – | –
19 | CCCOC[C@H]1C[C@@H](n2nc(CC(=O)O)c3ccc(F)cc32)CN1S(=O)(=O)c1ccc(OC(C)C)cc1 [Compound I-327] | 100 to 5000 | 100 to 5000 | – | –
20 | CCOc1ccc(S(=O)(=O)N2C[C@H](n3nc(CC(=O)O)c4ccccc43)[C@H](C)[C@H]2C#N)cc1 [Compound I-332] | 100 to 5000 | < 100 | – | –
21 | CCOc1ccc(S(=O)(=O)N2C[C@H](n3nc(CC(=O)O)c4ccccc43)[C@H](C)[C@@H]2C#N)cc1 [Compound I-333] | < 100 | < 100 | – | –
22 | CCOc1ccc(S(=O)(=O)N2C[C@@H](C)[C@@H](n3nc(C(F)C(=O)O)c4ccccc43)C2)cc1 (stereo partly shown) [Compound I-338] | < 100 | 100 to 5000 | – | –
23 | CC(C)Oc1ccc(S(=O)(=O)N2C[C@H](n3nc(CC(=O)O)c4ccc(F)cc43)C[C@@H]2COCCCO)cc1 [Compound I-342] | 100 to 5000 | 100 to 5000 | – | –

Second part, the molecule after the results:

Row | IC50 (Human DP1 receptor; [1]) [nM] | Ki (CRTH2; [2]) [nM] | IC50 (Human DP1 receptor; IC50 of PGD2 (60 nM)-induced cAMP increase, human DP1 receptor expressing Jurkut cell) [nM] | Ki (CRTH2) [nM] | Compound
24 | 100 to 5000 | 100 to 5000 | – | – | COCCOCCOC[C@H]1C[C@@H](n2nc(CC(=O)O)c3ccc(F)cc32)CN1S(=O)(=O)c1ccc(OC(C)C)cc1 [Compound I-291]
25 | < 100 | 100 to 5000 | – | – | CC(C)Oc1ccc(S(=O)(=O)N2C[C@H](n3nc(CC(=O)O)c4ccc(F)cc43)C[C@@H]2COc2ccccc2O)cc1 [Compound I-292]
26 | 100 to 5000 | 100 to 5000 | – | – | CCOc1ccc(S(=O)(=O)N2C[C@@H](n3nc(CC(=O)O)c4ccccc43)[C@H](C)[C@H]2C#N)cc1 [Compound I-294]
27 | < 100 | 100 to 5000 | – | – | CC(C)Oc1ccc(S(=O)(=O)N2C[C@H](n3nc(CC(=O)O)c4ccc(F)cc43)C[C@@H]2COc2cccc(I)c2)cc1 [Compound I-295]
28 | 100 to 5000 | < 100 | – | – | CC(C)Oc1ccc(S(=O)(=O)N2C[C@H](n3nc(CC(=O)O)c4ccc(F)cc43)C[C@H]2COc2nc3ccccc3s2)cc1 [Compound I-300]
29 | 100 to 5000 | 100 to 5000 | – | – | CC(C)Oc1ccc(S(=O)(=O)N2C[C@@H](n3nc(CC(=O)O)c4ccc(F)cc43)C[C@@H]2c2ccccc2F)cc1 [Compound I-301]
30 | 100 to 5000 | 100 to 5000 | – | – | CC(C)Oc1ccc(S(=O)(=O)N2C[C@H](n3nc(CC(=O)O)c4ccc(F)cc43)C[C@@H]2c2ccccc2F)cc1 [Compound I-302]
31 | < 100 | 100 to 5000 | – | – | CC(C)Oc1ccc(S(=O)(=O)N2C[C@H](n3nc(CC(=O)O)c4ccc(F)cc43)C[C@@H]2COc2cccc(F)c2)cc1 [Compound I-303]
32 | < 100 | < 100 | – | – | CCOc1ccc(S(=O)(=O)N2C[C@H](n3nc(CC(=O)O)c4ccccc43)[C@@H](C)[C@@H]2C#N)cc1 [Compound I-304]
33 | 100 to 5000 | 100 to 5000 | – | – | CCOc1ccc(S(=O)(=O)N2C[C@@H](n3nc(CC(=O)O)c4ccccc43)[C@](C)(F)C2)cc1 [Compound I-310]
34 | 100 to 5000 | < 100 | – | – | CCOc1ccc(S(=O)(=O)N2C[C@H](F)[C@@H](n3nc(CC(=O)O)c4ccccc43)C2)cc1 [Compound I-313]
35 | 100 to 5000 | 100 to 5000 | 110 | 220 | Cc1c(CC(=O)O)c2ccccc2n1[C@@H]1C[C@H](C)N(S(=O)(=O)c2ccc(OC(F)F)cc2)C1 [Compound I-316]
36 | 100 to 5000 | 100 to 5000 | – | – | CCOc1ccc(S(=O)(=O)N2C[C@@H](C)[C@@H](n3cc(CC(=O)O)c4ccc(-c5cnn(C)c5)cc43)C2)cc1 [Compound I-328]
37 | < 100 | < 100 | – | – | CCOc1ccc(S(=O)(=O)N2C[C@@H](C)[C@@H](n3c(C)c(CC(=O)O)c4ccccc43)C2)cn1 [Compound I-330]
38 | < 100 | < 100 | – | – | CCOc1ccc(S(=O)(=O)N2C[C@H](n3nc(CC(=O)O)c4ccc(F)cc43)C(C)(C)C2)cc1 [Compound I-331]
39 | < 100 | 100 to 5000 | – | – | CC(C)Oc1ccc(S(=O)(=O)N2C[C@H](n3nc(CC(=O)O)c4ccc(F)cc43)C[C@@H]2COc2nc3ccccc3s2)cc1 [Compound I-334]
40 | 100 to 5000 | 100 to 5000 | – | – | CCOc1ccc(S(=O)(=O)N2C[C@@H](C)[C@@H](n3nc(Cc4cc(O)no4)c4ccccc43)C2)cc1 [Compound I-341]
